Measurements reported in patent publication US8431563B2 (priority 2010, dated 2013).
Where a name gives a salt, the structure may show the parent alone. Read-outs that look alike come from different tables or passages of the source.

How the values were obtained:
[1] = target: T1, interaction between glucokinase (GK) and glucokinase regulatory protein (GKRP) (Homo sapiens, UniProt Q14397); test: biochemical; assay type: binding; details: avi-tagged GKRP, GK-fluorescein, AlphaScreen beads
T1 sequence (Q14397 1-625): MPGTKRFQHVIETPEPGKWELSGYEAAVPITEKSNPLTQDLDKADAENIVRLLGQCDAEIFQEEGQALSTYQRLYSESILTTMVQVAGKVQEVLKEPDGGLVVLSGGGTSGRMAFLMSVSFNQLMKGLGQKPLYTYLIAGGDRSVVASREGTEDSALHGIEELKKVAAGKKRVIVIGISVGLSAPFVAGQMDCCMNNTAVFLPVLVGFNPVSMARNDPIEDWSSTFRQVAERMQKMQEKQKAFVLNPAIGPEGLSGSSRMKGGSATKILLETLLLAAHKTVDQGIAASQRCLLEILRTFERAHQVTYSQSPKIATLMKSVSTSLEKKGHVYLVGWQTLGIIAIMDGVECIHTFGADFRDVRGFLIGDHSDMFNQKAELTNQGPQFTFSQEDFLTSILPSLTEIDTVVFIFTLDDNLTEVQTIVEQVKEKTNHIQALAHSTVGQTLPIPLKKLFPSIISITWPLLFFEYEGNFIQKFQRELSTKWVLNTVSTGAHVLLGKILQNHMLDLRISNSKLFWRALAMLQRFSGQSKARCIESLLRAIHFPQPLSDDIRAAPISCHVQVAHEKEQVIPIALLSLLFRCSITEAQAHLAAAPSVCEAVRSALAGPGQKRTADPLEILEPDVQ
Description: GK-GKRP Binding Assay Protocol
This assay is used to directly measure the interaction between glucokinase (GK) and glucokinase regulatory protein (GKRP). Begin by preparing the following solutions. Assay Buffer: 20 mM Tris, pH 7.5/0.05% BSA/1 mM DTT/1 μM sorbitol-6-phosphate. […] Combine the following reagents in a white 96-well half area plate. Pipette 14 μl of the diluted avi-tagged GKRP into each well. Add 1 μl of compound to be tested and incubate at room temperature for 20 minutes. After 20 minutes, add 5 μl of assay buffer containing 6 nM GK-fluorescein. […] Incubate in a dark room for 2 hours at room temperature. After 2 hours read the plate using an Envision plate reader (Perkin Elmer, Waltham Mass.).

[2] = target: T2, GKRP (Glucokinase Regulatory Protein) with human His-hepatic GK (Homo sapiens, UniProt Q14397); test: biochemical; details: 13C-glucose-6-phosphate formation; 280 nM GKRP (10×), 30 nM GK (5×); read-out: GK-GKRP EC50 (LC MS/MS-2)
T2 sequence (Q14397 1-625): T1 sequence (Q14397 1-625)
Description: GKRP LC MS/MS-2 Biochemical Assay
This assay is used to directly measure the formation of ^13C-glucose-6-phosphate from ^13C-glucose by LC MS/MS. Begin by preparing the following solutions: Compound Buffer (CB): 50 mM Tris, pH 7.5/4 mM MgCl2/6% DMSO/fresh 10 mM DTT from 1M frozen stock. Enzyme Buffer (EB): 50 mM Tris, pH 7.5/4 mM MgCl2/6% DMSO/fresh 0.1% BSA/fresh 0.01% Brij-35 (10% BSA and 1% Brij-35 stock). GK (Glucokinase) Working Stock (5×): Dilute human His-hepatic GK to 30 nM in EB buffer. […] After 30 minutes add 10 μl of GK Working Stock (5×). Re-seal the plate and incubate for another 30 minutes at room temperature while mixing. After the second 30 minutes, stop the reaction by the addition of 50 μl of 100% acetonitrile, seal, and mix for 5-10 minutes. Run 10 μl of this sample through the LC MS/MS (API 3200, Applied Biosystems, Carlsbad, Calif.).

[3] = read-out: GK-GKRP IC50 (Binding)

Structure (SMILES): C[C@H]1CN(S(=O)(=O)c2ccc(N)s2)CCN1c1ccc(C(O)(C(F)(F)F)C(F)(F)F)cc1 [Example 149, 2-(4-((2S)-4-((5-amino-2-thiophenyl)sulfonyl)-2-methyl-1-piperazinyl)phenyl)-1,1,1,3,3,3-hexafluoro-2-propanol]
- IC50 [1, 3]: 450 nM
- EC50 [2]: 109 nM

Structure (SMILES): CC(O)(c1ccc(N2CCN(S(=O)(=O)c3cccs3)C[C@@H]2CN2[C@@H]3COC[C@H]2CC(=O)C3)cc1)C(F)(F)F (stereo partly drawn) [Example 106, 9-(((2S)-4-(2-thiophenylsulfonyl)-1-(4-(2,2,2-trifluoro-1-hydroxy-1-methylethyl)phenyl)-2-piperazinyl)methyl)-3-oxa-9-azabicyclo[3.3.1]nonan-7-one]
- IC50 [1, 3]: 35 nM
- EC50 [2]: 97 nM

Structure (SMILES): CC(O)(c1ccc(N2CCN(S(=O)(=O)c3cccs3)C[C@@H]2C[S+]([O-])c2cccc(F)c2)cc1)C(F)(F)F (single isomer, unassigned) [Example 189 Peak#2]
- IC50 [1, 3]: 717 nM

Structure (SMILES): O=S(=O)(c1cccs1)N1CCN(c2ccc(C(O)(C(F)(F)F)C(F)(F)F)cc2)C(Cc2ccc(O)cc2)C1 (racemic) [Example 177, 4-((1-(4-(1,1,1,3,3,3-hexafluoro-2-hydroxypropan-2-yl)phenyl)-4-(thiophen-2-ylsulfonyl)piperazin-2-yl)methyl)phenol]
- IC50 [1, 3]: 786 nM

Structure (SMILES): CCC(O)C#Cc1cc(C(O)(C(F)(F)F)C(F)(F)F)ccc1N1CCN(S(=O)(=O)c2cccs2)CC1 (racemic) [Example 154, 1-(2-(4-(2-thiophenylsulfonyl)-1-piperazinyl)-5-(2,2,2-trifluoro-1-hydroxy-1-(trifluoromethyl)ethyl)phenyl)-1-pentyn-3-ol]
- IC50 [1, 3]: 1060 nM

Structure (SMILES): CC(O)(c1ccc(N2CCN(S(=O)(=O)c3cccs3)C[C@@H]2C[S+]([O-])c2cccc(F)c2)cc1)C(F)(F)F (single isomer, unassigned) [Example 189 Peak#3]
- IC50 [1, 3]: 535 nM

Structure (SMILES): COC(C#Cc1cc(C(O)(C(F)(F)F)C(F)(F)F)ccc1N1CCN(S(=O)(=O)c2cccs2)CC1)C(C)C (racemic) [Example 157, 1,1,1,3,3,3-hexafluoro-2-(3-(3-methoxy-4-methyl-1-pentyn-1-yl)-4-(4-(2-thiophenylsulfonyl)-1-piperazinyl)phenyl)-2-propanol]
- IC50 [1, 3]: 658 nM

Structure (SMILES): CC(C)C(O)C#Cc1cc(C(O)(C(F)(F)F)C(F)(F)F)ccc1N1CCN(S(=O)(=O)c2cccs2)CC1 (racemic) [Example 156, 4-methyl-1-(2-(4-(2-thiophenylsulfonyl)-1-piperazinyl)-5-(2,2,2-trifluoro-1-hydroxy-1-(trifluoromethyl)ethyl)phenyl)-1-pentyn-3-ol]
- IC50 [1, 3]: 2860 nM

Structure (SMILES): CN(Cc1cn(C)cn1)C[C@H]1CN(S(=O)(=O)c2cccs2)CCN1c1ccc(C(C)(O)C(F)(F)F)cc1 (mixture of isomers) [Example 121, 1,1,1-trifluoro-2-(4-((2S)-2-((methyl((1-methyl-1H-imidazol-4-yl)methyl)amino)methyl)-4-(2-thiophenylsulfonyl)-1-piperazinyl)phenyl)-2-propanol]
- IC50 [1, 3]: 521 nM

Structure (SMILES): CC(O)(c1ccc(N2CCN(S(=O)(=O)c3cccs3)C[C@@H]2CN(C2CCC2)S(=O)(=O)c2cccnc2)cc1)C(F)(F)F (mixture of isomers) [Example 213, N-cyclobutyl-N-(((2R)-4-(2-thiophenylsulfonyl)-1-(4-(2,2,2-trifluoro-1-hydroxy-1-methylethyl)phenyl)-2-piperazinyl)methyl)-3-pyridinesulfonamide]
- IC50 [1, 3]: 928 nM

Structure (SMILES): COc1cccc(CC2CN(S(=O)(=O)c3cccs3)CCN2c2ccc(C(O)(C(F)(F)F)C(F)(F)F)cc2)c1 (racemic) [Example 173, 1,1,1,3,3,3-hexafluoro-2-(4-(2-(3-methoxybenzyl)-4-(thiophen-2-ylsulfonyl)piperazin-1-yl)phenyl)-2-propanol]
- IC50 [1, 3]: 542 nM

Structure (SMILES): CC(c1ccccc1)N(C[C@H]1CN(S(=O)(=O)c2cccs2)CCN1c1ccc(C(C)(O)C(F)(F)F)cc1)S(C)(=O)=O (mixture of isomers) [Example 222, N-(1-phenylethyl)-N-(((2R)-4-(2-thiophenylsulfonyl)-1-(4-(2,2,2-trifluoro-1-hydroxy-1-methylethyl)phenyl)-2-piperazinyl)methyl)methanesulfonamide]
- IC50 [1, 3]: 671 nM

Structure (SMILES): C[C@H]1COCCN1C[C@H]1CN(S(=O)(=O)c2cccs2)CCN1c1ccc(C(O)(C(F)(F)F)C(F)(F)F)cc1 [Example 132, 1,1,1,3,3,3-hexafluoro-2-(4-((2S)-2-(((3S)-3-methyl-4-morpholinyl)methyl)-4-(2-thiophenylsulfonyl)-1-piperazinyl)phenyl)-2-propanol]
- IC50 [1, 3]: 6 nM

Structure (SMILES): CC(O)(c1ccc(N2CCN(S(=O)(=O)c3cccs3)C[C@@H]2CN2CCNC(=O)C2)cc1)C(F)(F)F (mixture of isomers) [Example 179, 4-(((2S)-4-(2-thiophensulfonyl)-1-(4-(2,2,2-trifluoro-1-hydroxy-1-methylethyl)phenyl)-2-piperazinyl)methyl)-2-piperazinone]
- IC50 [1, 3]: 542 nM

Structure (SMILES): C[C@H]1CN(S(=O)(=O)c2cnc(N)s2)CCN1c1ncc(C(O)(C(F)(F)F)C(F)(F)F)cn1 [Example 147, 2-(2-((2S)-4-((2-amino-1,3-thiazol-5-yl)sulfonyl)-2-methyl-1-piperazinyl)-5-pyrimidinyl)-1,1,1,3,3,3-hexafluoro-2-propanol]
- IC50 [1, 3]: 998 nM

Structure (SMILES): C[C@H]1COCCN1C[C@H]1CN(S(=O)(=O)c2cccs2)CCN1c1ccc(C(O)(CO)C(F)(F)F)cc1 (mixture of isomers) [Example 83, 3,3,3-trifluoro-2-(4-((2S)-2-(((3S)-3-methyl-4-morpholinyl)methyl)-4-(2-thiophenylsulfonyl)-1-piperazinyl)phenyl)-1,2-propanediol]
- EC50 [2]: 19 nM

Structure (SMILES): COc1ccc(CC2CN(S(=O)(=O)c3cccs3)CCN2c2ccc(C(O)(C(F)(F)F)C(F)(F)F)cc2)cc1 (racemic) [Example 175, 1,1,1,3,3,3-hexafluoro-2-(4-(2-(4-methoxybenzyl)-4-(thiophen-2-ylsulfonyl)piperazin-1-yl)phenyl)-2-propanol]
- IC50 [1, 3]: 2870 nM

Structure (SMILES): CC(O)(c1ccc(N2CCN(S(=O)(=O)c3cccs3)C[C@@H]2CNC2CC2)cc1)C(F)(F)F (mixture of isomers) [Example 199, 2-(4-((2S)-2-((cyclopropylamino)methyl)-4-(2-thiophenylsulfonyl)-1-piperazinyl)phenyl)-1,1,1-trifluoro-2-propanol]
- IC50 ([1]; GK-GKRP IC50 (Binding)): 713 nM

Structure (SMILES): CCC(O)C#Cc1cc(C(O)(C(F)(F)F)C(F)(F)F)ccc1N1CCC(S(=O)(=O)c2ccccc2)CC1 (racemic) [Example 162, 1-(2-(4-(phenylsulfonyl)-1-piperidinyl)-5-(2,2,2-trifluoro-1-hydroxy-1-(trifluoromethyl)ethyl)phenyl)-1-pentyn-3-ol]
- IC50 [1, 3]: 5180 nM

Structure (SMILES): CC(C)C1C(=O)NCCN1C[C@H]1CN(S(=O)(=O)c2ccc(N)s2)CCN1c1ncc(C(O)(C(F)(F)F)C(F)(F)F)cn1 (single isomer, unassigned) [Example 184 Peak #2]
- EC50 [2]: 25 nM

Structure (SMILES): NCC#Cc1cc(C(O)(C(F)(F)F)C(F)(F)F)ccc1N1CCN(S(=O)(=O)c2cccs2)CC1 [Example 159, 2-(3-(3-amino-1-propyn-1-yl)-4-(4-(2-thiophenylsulfonyl)-1-piperazinyl)phenyl)-1,1,1,3,3,3-hexafluoro-2-propanol trifluoroacetate]
- IC50 ([1]; GK-GKRP IC50 (Binding)): 1920 nM

Structure (SMILES): CC(C)(C)OC(=O)NCC#Cc1cc(C(O)(C(F)(F)F)C(F)(F)F)ccc1N1CCN(S(=O)(=O)c2cccs2)CC1 [Example 158, tert-butyl (3-(2-(4-(2-thiophenylsulfonyl)-1-piperazinyl)-5-(2,2,2-trifluoro-1-hydroxy-1-(trifluoromethyl)ethyl)phenyl)-2-propyn-1-yl)carbamate]
- IC50 [1, 3]: 695 nM
